{"source": "paper PMC11982978", "about": "“Cancer hotspot mutations rewire ERK2 specificity by selective exclusion of docking interactions” (The Journal of Biological Chemistry, 2025)", "key": {"ERK2 E320K": {"test_system": "ERK2 E320K", "experiment": "Y2H D-site library screen, ERK2 E320K", "type": "cell-based, rat", "set-up": "key to ES, +His / ES, -His: ES = slope of ln(Ft/F0) vs number of yeast population doublings", "excerpt": "(§1) To examine how cancer-associated CD site mutations affect the scope of ERK2 docking interactions, we adopted a Y2H strategy that we previously applied to define the D-site interactome of WT ERK2 ([15]). This system reports on interactions between ERK2 and a fragment of its substrate ELK1 that harbors a docking site essential for binding (Fig. 1C). The system thus evaluates the binding of potential sequences by substituting them for the native ELK1 docking site. We transformed Y2H strains with a bait plasmid expressing the Gal4 DNA-binding domain (DBD) fused to WT or CD mutant forms of rat ERK2 (R133K, D319N or E320K, equivalent respectively to human R135K, D321N and E322K), along with a prey plasmid expressing Gal4 activation domain (AD) fused to the ELK1 fragment harboring various docking site sequences. We then assayed these strains for growth on solid media under non-selective (+His) and selective conditions (−His) to detect interactions (Fig. 1D).\n(§2) We previously used the Y2H system to screen WT ERK2 against a pooled library of 11,756 ELK1 variants incorporating potential docking sites from the human proteome ([15]). To identify interacting sequences either gained or lost upon ERK2 CD site mutation, we screened the same library against ERK2^D319N and ERK2^E320K. Yeast expressing ERK2 mutant bait plasmids were transformed with the ELK1 library pool and subjected to competitive growth under selective (−His) and non-selective conditions (+His) in parallel. Cultures were sampled periodically over ∼7 population doublings. The DNA sequence encoding the variable docking site region was PCR amplified and analyzed by next-generation sequencing (Fig. 2A, Dataset S1). The change in sequence abundance over time was fitted to an exponential function to assign an enrichment score (ES) to each docking site, where a higher ES indicates a greater increase in sequence abundance as the population grows. A significant enrichment of docking site sequences was observed only under selective conditions (Figs. 2B, S1). For each mutant, we observed generally good reproducibility across three independently conducted screens albeit with some sequences enriched in only a single replicate (Fig. S2, A and B). Average ES scores for the E320K and D319N mutant screens were better correlated with each other (R = 0.83) than were average ES scores for either mutant compared to WT ERK2 (R = 0.67 for WT versus D319N, R = 0.63 for WT versus E320K) (Fig. S2C).\n(§3) To compare sequences selected by CD mutants with those selected by WT ERK2, we defined those sequences with an ES equal to or higher than three standard deviations from the mean (Z > 3) as hits. Using this cutoff, we obtained 121, 127, and 153 hits sequences from the WT, D319N, and E320K screens, respectively (Fig. 2C, Dataset S2).\n(§4) Yeast harboring pGBT9-ERK2^E320K or pGBT9-ERK2^D319N were transformed with the pGADGH-ELK1 D-site library plasmid pool. Transformants (10–40 colonies per library component) were suspended in SD-Leu-Trp media, diluted to an OD600 of 0.1, and cultured in a shaking incubator at 30 °C to an OD600 of 1.0. The resulting culture was used to initiate a competitive selection screen. Cell growth, sample collection and data analysis were performed exactly as described previously for WT ERK2 ([15]). The frequency (F) of each D-site sequence at a given time point (t) was calculated by dividing the number of reads by the total read count for all sequences. For each sequence, a plot of ln(Ft/F0) as a function of the number of yeast population doublings was fit to a line, and the enrichment score (ES) for that sequence was defined as the slope of this line. Illumina sequencing reads, calculated ES, and Z scores for each screen are provided in Dataset S1."}, "ERK2 D319N": {"test_system": "ERK2 D319N", "experiment": "Y2H D-site library screen, ERK2 D319N", "type": "cell-based, rat", "set-up": "key to ES, +His / ES, -His: ES = slope of ln(Ft/F0) vs number of yeast population doublings", "excerpt": "as §1, §2, §3, §4"}, "WT ERK2 [1]": {"test_system": "WT ERK2", "experiment": "Y2H D-site library screen, WT ERK2", "type": "cell-based, rat", "set-up": "key: ES = slope of ln(Ft/F0) vs number of yeast population doublings", "conditions": "mutant ES is the combined average ES from the D319N and E320K screens", "excerpt": "as §1, §2, §3, §4"}, "WT ERK2 [2]": {"test_system": "WT ERK2", "conditions": "selective conditions (-His); hits Z > 3; average of three screens; cited from earlier work", "excerpt": "Supplement mmc2.xlsx, sheet \"WT Hits\" | column: Z-score"}, "[3]": {"conditions": "Average of 3 Replicate Experiments, non-selective"}, "[4]": {"conditions": "Average of 3 Replicate Experiments, selective"}, "[5]": {"conditions": "Average of 3 Replicate Screens, non-selective"}, "[6]": {"conditions": "Average of 3 Replicate Screens, selective"}}}
{"sequence": "RQIRASKGIVVLEE [KANSL1L, D-site 14-mer in ELK1 Y2H prey]", "values": [{"measurement": "ES, +His", "setting": "ERK2 E320K; [3]", "value": -0.008476}, {"measurement": "Z-Score, +His", "setting": "ERK2 E320K; [3]", "value": -0.2637}, {"measurement": "ES, -His", "setting": "ERK2 E320K; [4]", "value": -0.1355}, {"measurement": "Z-Score, -His", "setting": "ERK2 E320K; [4]", "value": -0.3259}, {"measurement": "ES, +His", "setting": "ERK2 E320K; Experiment 1, non-selective", "value": 0.001097}, {"measurement": "ES, -His", "setting": "ERK2 E320K; Experiment 1, selective", "value": -0.1358}, {"measurement": "ES, +His", "setting": "ERK2 E320K; Experiment 2, non-selective", "value": -0.005884}, {"measurement": "ES, -His", "setting": "ERK2 E320K; Experiment 2, selective", "value": -0.07688}, {"measurement": "ES, +His", "setting": "ERK2 E320K; Experiment 3, non-selective", "value": -0.02064}, {"measurement": "ES, -His", "setting": "ERK2 E320K; Experiment 3, selective", "value": -0.1937}, {"measurement": "ES, +His", "setting": "ERK2 D319N; [5]", "value": -0.009508}, {"measurement": "Z-Score, +His", "setting": "ERK2 D319N; [5]", "value": -0.257}, {"measurement": "ES, -His", "setting": "ERK2 D319N; [6]", "value": -0.1275}, {"measurement": "Z-Score, -His", "setting": "ERK2 D319N; [6]", "value": -0.06943}, {"measurement": "ES, +His", "setting": "ERK2 D319N; Experiment 1, non-selective", "value": -0.002763}, {"measurement": "ES, -His", "setting": "ERK2 D319N; Experiment 1, selective", "value": -0.1582}, {"measurement": "ES, +His", "setting": "ERK2 D319N; Experiment 2, non-selective", "value": -0.0144}, {"measurement": "ES, -His", "setting": "ERK2 D319N; Experiment 2, selective", "value": -0.1186}, {"measurement": "ES, +His", "setting": "ERK2 D319N; Experiment 3, non-selective", "value": -0.01136}, {"measurement": "ES, -His", "setting": "ERK2 D319N; Experiment 3, selective", "value": -0.1057}]}
{"sequence": "RRMRRAGQALKLPS [HAS3, D-site 14-mer in ELK1 Y2H prey]", "values": [{"measurement": "WT ES - mutant ES", "setting": "WT ERK2 [1]", "value": 0.310}, {"measurement": "Z-score (ES) of hit sequences, WT ERK2 Y2H screen", "setting": "WT ERK2 [2]", "value": 7.82}]}
{"sequence": "RSVRKRSPWLQLPG [FCRLB, D-site 14-mer in ELK1 Y2H prey]", "values": [{"measurement": "Z-score (ES) of hit sequences, WT ERK2 Y2H screen", "setting": "WT ERK2 [2]", "value": 3.88}]}
{"sequence": "SGDPRKPRQLTVGD [ZMYND15, D-site 14-mer in ELK1 Y2H prey]", "values": [{"measurement": "Z-score (ES) of hit sequences, WT ERK2 Y2H screen", "setting": "WT ERK2 [2]", "value": 5.02}]}
{"sequence": "SGMRARRGLLRLPR [B4GALT5, D-site 14-mer in ELK1 Y2H prey]", "values": [{"measurement": "Z-score (ES) of hit sequences, WT ERK2 Y2H screen", "setting": "WT ERK2 [2]", "value": 5.95}]}
{"sequence": "SKGKKRNPGLKIPK [MAP2K6, D-site 14-mer in ELK1 Y2H prey]", "values": [{"measurement": "Z-score (ES) of hit sequences, WT ERK2 Y2H screen", "setting": "WT ERK2 [2]", "value": 8.58}]}
{"sequence": "SLARAKRPSVSFAE [SCARF1, D-site 14-mer in ELK1 Y2H prey]", "values": [{"measurement": "Z-score (ES) of hit sequences, WT ERK2 Y2H screen", "setting": "WT ERK2 [2]", "value": 5.09}]}
{"sequence": "SLKKKIQPKLSLTL [JAZF1, D-site 14-mer in ELK1 Y2H prey]", "values": [{"measurement": "Z-score (ES) of hit sequences, WT ERK2 Y2H screen", "setting": "WT ERK2 [2]", "value": 5.24}]}
{"sequence": "SPKWKNFKGLKLQW [MLXIP, D-site 14-mer in ELK1 Y2H prey]", "values": [{"measurement": "Z-score (ES) of hit sequences, WT ERK2 Y2H screen", "setting": "WT ERK2 [2]", "value": 8.72}]}
{"sequence": "SRKQRQPARLQLPA [ZBTB45, D-site 14-mer in ELK1 Y2H prey]", "values": [{"measurement": "Z-score (ES) of hit sequences, WT ERK2 Y2H screen", "setting": "WT ERK2 [2]", "value": 3.70}]}
{"sequence": "TKMQKKVLSLRLPC [RIN2, D-site 14-mer in ELK1 Y2H prey]", "values": [{"measurement": "Z-score (ES) of hit sequences, WT ERK2 Y2H screen", "setting": "WT ERK2 [2]", "value": 7.27}]}
{"sequence": "TRQKHAKKHLGFFR [UTP23, D-site 14-mer in ELK1 Y2H prey]", "values": [{"measurement": "Z-score (ES) of hit sequences, WT ERK2 Y2H screen", "setting": "WT ERK2 [2]", "value": 3.13}]}
{"sequence": "TYRPKRPTTLNLFP [MAPK8IP1, D-site 14-mer in ELK1 Y2H prey]", "values": [{"measurement": "Z-score (ES) of hit sequences, WT ERK2 Y2H screen", "setting": "WT ERK2 [2]", "value": 3.22}]}
{"sequence": "VVALRKKQQLAIGP [AGAP3, D-site 14-mer in ELK1 Y2H prey]", "values": [{"measurement": "Z-score (ES) of hit sequences, WT ERK2 Y2H screen", "setting": "WT ERK2 [2]", "value": 6.33}]}
{"sequence": "YKMKFFTKCVAFSK [LRP2BP, D-site 14-mer in ELK1 Y2H prey]", "values": [{"measurement": "Z-score (ES) of hit sequences, WT ERK2 Y2H screen", "setting": "WT ERK2 [2]", "value": 3.15}]}
